{"source": "paper PMC4438668", "about": "“Quantitative High-Throughput Identification of Drugs as Modulators of Human Constitutive Androstane Receptor” (Scientific Reports, 2015)", "key": {"EYFP-hCAR": {"target": "T1, EYFP-hCAR (Homo sapiens, UniProt Q14994)", "T1 construct": "expressed in transfected cells; host or cells: human primary hepatocytes infected with Ad/EYFP-hCAR", "T1 sequence (Q14994 1-348 isoform Q14994-2)": "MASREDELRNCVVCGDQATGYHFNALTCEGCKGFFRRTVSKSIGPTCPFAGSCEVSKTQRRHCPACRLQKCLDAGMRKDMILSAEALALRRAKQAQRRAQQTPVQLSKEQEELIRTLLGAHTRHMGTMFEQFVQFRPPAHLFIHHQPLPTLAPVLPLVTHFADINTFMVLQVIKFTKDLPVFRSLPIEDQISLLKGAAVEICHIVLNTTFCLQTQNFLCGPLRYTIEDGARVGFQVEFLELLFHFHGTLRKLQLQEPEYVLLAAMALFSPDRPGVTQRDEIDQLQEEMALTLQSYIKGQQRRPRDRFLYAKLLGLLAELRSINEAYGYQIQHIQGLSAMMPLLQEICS", "assay": "Nuclear translocation of Ad/EYFP-hCAR in human primary hepatocytes", "assay_type": "cell-based", "settings": "HPH, 1 mM", "method": "A recombinant adenovirus expressing enhanced yellow fluorescent protein-tagged hCAR (Ad/EYFP-hCAR) was generated as described previously. Hepatocytes cultured in 96-well collagen-coated plates in serum free Williams’ E medium were infected with Ad/EFYP-hCAR (1 μl/well) for 12 h before treatment with the vehicle control, DMSO (0.1%), PB (1 mM), and selected compounds for another 8 h. Subcellular localization of hCAR was visualized using a Nikon (Tokyo, Japan) C1-LU3 instrument based on an inverted Nikon Eclipse TE2000 microscope."}, "human CAR (hCAR) [1]": {"target": "T2, human CAR (hCAR) (Homo sapiens, UniProt Q14994)", "T2 sequence (Q14994 1-348 isoform Q14994-2)": "T1 sequence (Q14994 1-348 isoform Q14994-2)", "assay": "hCAR luciferase reporter qHTS, agonist mode (HepG2-CYP2B6-hCAR cells, PK11195 co-treatment)", "settings": "for EC50 / Follow-up Confirmation Efficacy / Primary Screen Efficacy: agonist mode; for Follow-up Confirmation Efficacy: relative to CITCO (100%); for Primary Screen Efficacy: relative to CITCO Emax (100%); for Identified as hCAR agonist in the qHTS: primary qHTS of 2816 NPC compounds", "procedure": "The generated stable cell line, namely HepG2-CYP2B6-hCAR, was used to identify hCAR modulators in a qHTS platform. Assays were run in both agonist and antagonist modes. In brief, HepG2-CYP2B6-hCAR cells were dispensed at 2,500 cells/well in 1,536-well plates (Greiner Bio-One North America, Monroe, NC) using a Multidrop Combi (Thermo Fisher Scientific Inc., Waltham, MA). […] Each NPC compound was tested at 8 concentrations ranging from 0.6 nM to 38.3 μM. The assays were incubated at 37 °C for 24 h followed by the addition of 4 μl of the ONE-Glo luciferase reagent (Promega, Madision, WI). The assay plates were incubated at room temperature for 20 min and luminescence intensity was quantified using a ViewLux plate reader (PerkinElmer, Shelton, CT).\n(§1) Concentration-response titration points for each compound were then fitted to the Hill equation, yielding half-maximal inhibition (IC50) or activation (EC50) and maximal response (efficacy) values. Compounds from the primary qHTS screen were classified into four major curve classes according to quality of curve fit, potency and efficacy. Class 1.1, 1.2, 2.1, and 2.2 curves were high-quality and thus high-confidence concentration-response curves (CRCs). […] All other curve classes (including those curves with single point activity) were deemed inconclusive. […] Follow-up studies were performed using a new aliquot of samples to confirm sample integrity and assay reproducibility.\nThese compounds were prepared in 1536-well compound plates at 11-point 3-fold dilution titrations in DMSO, with final concentrations ranging from 0.6 nM to 38.3 μM. All of these compounds were retested in both HepG2-CYP2B6-hCAR and cell viability assays."}, "HepG2-CYP2B6-hCAR cells": {"tested_on": "HepG2-CYP2B6-hCAR cells", "assay": "Cell viability assay (CellTiter-Glo ATP quantitation)", "assay_type": "cell-based, human", "set-up": "key to Cytotoxicity (activity call): Inactive: considered inactive if efficacy is less than 30%", "settings": "24 h", "method": "The potential cytotoxicity of the NPC compounds in HepG2-CYP2B6-hCAR cells was measured using a luciferase-coupled ATP quantitation assay (CellTiter-Glo viability assay, Promega). The change of intracellular ATP content indicates the number of metabolically competent cells. The cells were seeded at 2,500 cells/5 μl in 1536-well plates and were exposed to each test compound at concentrations and treatment duration as previously mentioned. The assay plates were incubated for 24 h at 37 °C, followed by the addition of 4 μl/well of CellTiter-Glo reagent. After 30 min incubation at RT, the luminescence intensity of the plates was measured using a ViewLux plate reader."}, "CYP3A4": {"tested_on": "CYP3A4", "assay": "CYP3A4 mRNA expression in HPH (real-time PCR)", "assay_type": "cell-based, human", "settings": "HPH, 24 h, vs vehicle control (0.1% DMSO)", "procedure": "(§2) HPH were isolated from human liver specimens by a modification of the two-step collagenase digestion method as described previously[43] or obtained from Bioreclamation In Vitro Technologies (Baltimore, MD). Fresh HPH were seeded at 1.5 × 10^6, 7.5 × 10^5 or 4.7 × 10^4 cells/well in 6-well, 12-well, or 96-well collagen coated plates, respectively. Hepatocytes were cultured for 36 h at 37 °C before treatment with specified compounds for another 24 or 72 h for detection of mRNA or protein expression in the 6-well and 12-well plates.\n(§3) Total RNA was isolated from treated hepatocytes using the TRIzol® reagent and reverse transcribed using a High Capacity cDNA Archive Kit (Applied Biosystems, Foster City, CA) following the manufacturers’ instructions. CYP2B6 and CYP3A4 mRNA expression were normalized against that of GAPDH. Real-time PCR assays were performed in 96-well optical plates on an ABI Prism 7000 Sequence Detection System with SYBR Green PCR Master Mix. […] Induction values were calculated using the equation: Fold = 2ΔΔCt, where ΔCt represents the differences in cycle threshold numbers between CYP2B6 or CYP3A4 and GAPDH, and ΔΔCt represents the relative change in these differences between control and treatment groups."}, "human CAR (hCAR) [2]": {"target": "T2, human CAR (hCAR)", "assay": "hCAR luciferase reporter qHTS, antagonist mode (HepG2-CYP2B6-hCAR cells, CITCO co-treatment);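 also: stable HepG2 line carrying hCAR plus a CYP2B6 promoter (PBREM/XREM) luciferase reporter, 1536-well format, 24 h compound exposure at 37 °C, then luminescence read with ONE-Glo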", "settings": "for Identified as hCAR antagonist/deactivator in the qHTS: primary qHTS of 2816 NPC compounds", "procedure": "The pEF6/V5-hCAR expression plasmid and the pGL4.17[luc2/Neo]-CYP2B6-2.2kb construct containing both the PBREM and XREM[40], were co-transfected in HepG2 cells using lipofectamine 2000 reagents (Life Technologies) following the manufacturer’s instruction. Dulbecco’s Modified Eagle Medium (DMEM) containing 10% FBS, 100 U/ml penicillin, 100 μg/ml streptomycin, G418 (0.6-1 mg/ml) and blasticidin (10 μg/ml) were used for the selection of colonies containing a mixed population of drug resistant cells. Subsequently, these cells were transferred to collagen-coated 48-well plates and continually cultured in the same media. Single colony containing both plasmids was selected and functionally verified.\nThe generated stable cell line, namely HepG2-CYP2B6-hCAR, was used to identify hCAR modulators in a qHTS platform. Assays were run in both agonist and antagonist modes. In brief, HepG2-CYP2B6-hCAR cells were dispensed at 2,500 cells/well in 1,536-well plates (Greiner Bio-One North America, Monroe, NC) using a Multidrop Combi (Thermo Fisher Scientific Inc., Waltham, MA). […] The assays were incubated at 37 °C for 24 h followed by the addition of 4 μl of the ONE-Glo luciferase reagent (Promega, Madision, WI). The assay plates were incubated at room temperature for 20 min and luminescence intensity was quantified using a ViewLux plate reader (PerkinElmer, Shelton, CT).\nas §1\nAll of these compounds were retested in both HepG2-CYP2B6-hCAR and cell viability assays."}, "hPXR": {"target": "T3, hPXR (Homo sapiens, UniProt O75469)", "T3 construct": "expressed in transfected cells; host or cells: HepG2 (transient transfection)", "T3 sequence (O75469 1-434)": "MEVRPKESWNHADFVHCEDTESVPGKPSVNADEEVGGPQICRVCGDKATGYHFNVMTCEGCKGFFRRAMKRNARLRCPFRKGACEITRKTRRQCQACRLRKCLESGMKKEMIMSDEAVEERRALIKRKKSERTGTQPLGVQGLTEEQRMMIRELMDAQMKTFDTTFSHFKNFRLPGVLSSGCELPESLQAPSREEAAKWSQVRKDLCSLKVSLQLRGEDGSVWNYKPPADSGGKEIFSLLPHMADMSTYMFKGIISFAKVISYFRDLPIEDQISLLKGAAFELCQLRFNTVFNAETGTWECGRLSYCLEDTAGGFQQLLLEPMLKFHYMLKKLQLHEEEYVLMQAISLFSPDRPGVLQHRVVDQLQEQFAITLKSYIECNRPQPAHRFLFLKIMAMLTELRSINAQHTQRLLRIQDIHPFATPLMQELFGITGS", "assay": "Transient hPXR luciferase assay in HepG2 cells (CYP2B6-2.2 kb reporter)", "assay_type": "cell-based", "settings": "HepG2, 24 h, in the presence or absence of rifampicin (10 μM)", "method": "HepG2 cells cultured in a 24-well plate were co-transfected with the CYP2B6-2.2 kb reporter and hPXR expression vectors using a Lipofectamine® 2000 Transfection Kit (Life Technologies) following the manufacturer’s instruction. […] Cell lysates were assayed for firefly luciferase activities normalized against the activities of co-transfected Renilla luciferase using a Dual-Luciferase Kit (Promega). Data were represented as mean±SD of three individual transfections."}, "CYP2B6": {"tested_on": "CYP2B6", "assay": "CYP2B6 mRNA expression in HPH (real-time PCR)", "settings": "HPH, 24 h, vs vehicle control (0.1% DMSO)", "procedure": "as §2, §3"}, "[3]": {"settings": "Follow-up Confirmation Potency (EC50), follow-up cherry-pick, 11-point titration"}, "[4]": {"settings": "Primary Screen Potency (EC50), primary qHTS, 2.5 μM PK11195, 24 h"}, "[5]": {"settings": "Follow-up Confirmation Potency (IC50), antagonist mode, follow-up cherry-pick, 11-point titration"}, "[6]": {"settings": "Primary Screen Potency (IC50), antagonist mode, primary qHTS, 0.1 μM CITCO, 24 h"}, "[7]": {"settings": "antagonist mode, follow-up cherry-pick, relative to PK11195 (100%)"}}, "data": [{"molecule": "CCC1(c2ccccc2)C(=O)NC(=O)NC1=O", "note": "[PB, phenobarbital]", "values": [{"measurement": "Nuclear localization of EYFP-hCAR", "setting": "EYFP-hCAR", "value": 99, "unit": "%"}]}, {"molecule": "CC(COc1ccccc1)N(CCCl)Cc1ccccc1", "note": "(centres unmarked) [Phenoxybenzamine]", "values": [{"measurement": "EC50", "setting": "human CAR (hCAR) [1]; [3]", "value": 12, "unit": "µM"}, {"measurement": "EC50", "setting": "human CAR (hCAR) [1]; [4]", "value": 9.5, "unit": "µM"}, {"measurement": "Follow-up Confirmation Efficacy", "setting": "human CAR (hCAR) [1]; follow-up cherry-pick", "value": 49, "unit": "%"}, {"measurement": "Primary Screen Efficacy", "setting": "human CAR (hCAR) [1]; primary qHTS", "value": 57, "unit": "%"}]}, {"molecule": "CC[C@@]1(O)C(=O)OCc2c1cc1n(c2=O)Cc2cc3c(CN(C)C)c(O)ccc3nc2-1", "note": "[Topotecan]", "values": [{"measurement": "Cytotoxicity (activity call)", "setting": "HepG2-CYP2B6-hCAR cells", "value": "Inactive"}, {"measurement": "Effect on CYP3A4 mRNA expression", "setting": "CYP3A4", "value": "negligible effect"}, {"measurement": "IC50", "setting": "human CAR (hCAR) [2]; [5]", "value": 0.36, "unit": "µM"}, {"measurement": "IC50", "setting": "human CAR (hCAR) [2]; [6]", "value": 0.06, "unit": "µM"}, {"measurement": "Follow-up Confirmation Efficacy", "setting": "human CAR (hCAR) [2]; [7]", "value": -109, "unit": "%"}, {"measurement": "Primary Screen Efficacy", "setting": "human CAR (hCAR) [2]; antagonist mode, primary qHTS, relative to PK11195 (100%)", "value": -94, "unit": "%"}]}, {"molecule": "CCCCNc1c(C(=O)OCC)c(C)nc2c1cnn2CC", "note": "[Tracazolate]", "values": [{"measurement": "EC50", "setting": "human CAR (hCAR) [1]; [3]", "value": 24, "unit": "µM"}, {"measurement": "EC50", "setting": "human CAR (hCAR) [1]; [4]", "value": 17, "unit": "µM"}, {"measurement": "Follow-up Confirmation Efficacy", "setting": "human CAR (hCAR) [1]; follow-up cherry-pick", "value": 101, "unit": "%"}, {"measurement": "Primary Screen Efficacy", "setting": "human CAR (hCAR) [1]; primary qHTS", "value": 27, "unit": "%"}]}, {"molecule": "O=c1[nH]c(=O)n([C@H]2C[C@H](O)[C@@H](CO)O2)cc1C(F)(F)F", "note": "[Trifluridine]", "values": [{"measurement": "Cytotoxicity (activity call)", "setting": "HepG2-CYP2B6-hCAR cells", "value": "Inactive"}, {"measurement": "Effect on basal and RIF-induced PXR activity", "setting": "hPXR", "value": "no effects on either basal or RIF-induced hPXR activation"}, {"measurement": "Effect on CYP2B6 mRNA expression", "setting": "CYP2B6", "value": "moderately induced"}, {"measurement": "IC50", "setting": "human CAR (hCAR) [2]; [5]", "value": 4.5, "unit": "µM"}, {"measurement": "IC50", "setting": "human CAR (hCAR) [2]; [6]", "value": 6.7, "unit": "µM"}, {"measurement": "Follow-up Confirmation Efficacy", "setting": "human CAR (hCAR) [2]; [7]", "value": -73, "unit": "%"}]}, {"molecule": "Clc1ccc(Nc2nnc(Cc3ccncc3)c3ccccc23)cc1", "note": "[Vatalanib]", "values": [{"measurement": "Effect on CYP3A4 mRNA expression", "setting": "CYP3A4", "value": "markedly enhanced"}, {"measurement": "Effect on CYP2B6 mRNA expression", "setting": "CYP2B6", "value": "significantly induced"}, {"measurement": "EC50", "setting": "human CAR (hCAR) [1]; [3]", "value": 12.6, "unit": "µM"}, {"measurement": "EC50", "setting": "human CAR (hCAR) [1]; [4]", "value": 10.7, "unit": "µM"}, {"measurement": "Follow-up Confirmation Efficacy", "setting": "human CAR (hCAR) [1]; follow-up cherry-pick", "value": 97, "unit": "%"}, {"measurement": "Primary Screen Efficacy", "setting": "human CAR (hCAR) [1]; primary qHTS", "value": 68, "unit": "%"}]}, {"molecule": "Clc1ccccc1C(c1ccccc1)(c1ccccc1)n1ccnc1", "note": "[clotrimazole]", "values": [{"measurement": "Identified as hCAR antagonist/deactivator in the qHTS", "setting": "human CAR (hCAR) [2]", "value": "recognized in the current study"}]}, {"molecule": "COC(=O)Nc1nc2ccc(C(=O)c3cccs3)cc2[nH]1", "note": "[nocodazole]", "values": [{"measurement": "Identified as hCAR agonist in the qHTS", "setting": "human CAR (hCAR) [1]", "value": "hCAR agonist from the current study"}]}, {"molecule": "O=C1OC(c2ccc(O)cc2)(c2ccc(O)cc2)c2ccccc21", "note": "[phenolphthalein]", "values": [{"measurement": "Identified as hCAR antagonist/deactivator in the qHTS", "setting": "human CAR (hCAR) [2]", "value": "recognized in the current study"}]}, {"molecule": "Cc1cccc(N(C)C(=S)Oc2ccc3ccccc3c2)c1", "note": "[tolnaftate]", "values": [{"measurement": "Identified as hCAR agonist in the qHTS", "setting": "human CAR (hCAR) [1]", "value": "agonists identified"}]}, {"molecule": "O=C(Nc1ccc(Cl)cc1)Nc1ccc(Cl)c(Cl)c1", "note": "[triclocarban]", "values": [{"measurement": "Identified as hCAR agonist in the qHTS", "setting": "human CAR (hCAR) [1]", "value": "agonists identified"}]}]}
